In ChEMBL document CHEMBL3351668, “Improvement of antibacterial activity of some sulfa drugs through linkage to certain phthalazin-1(2H)-one scaffolds” (2014):
In brackets after ≈: the same amount, converted by molar mass.

Experiments:
Enterococcus faecalis [1] = assay: Antibacterial activity against Enterococcus faecalis RCMB 010068 after 24 hrs by twofold serial dilution technique; format: functional; conditions: RCMB 010068, 24 h
Salmonella typhimurium [2] = assay: Antibacterial activity against Salmonella typhimurium RCMB 010072 at 100 umol/ml after 24 hrs by well diffusion assay; format: functional, Salmonella enterica subsp. enterica serovar Typhimurium
Streptococcus pneumoniae [3] = assay: Antibacterial activity against Streptococcus pneumoniae RCMB 010010 at 100 umol/ml after 24 hrs by well diffusion assay; format: functional
Staphylococcus aureus [4] = assay: Antibacterial activity against Staphylococcus aureus RCMB 010028 after 24 hrs by twofold serial dilution technique; format: functional; conditions: RCMB 010028, 24 h
Streptococcus pneumoniae [5] = assay: Antibacterial activity against Streptococcus pneumoniae RCMB 010010 after 24 hrs by twofold serial dilution technique; format: functional; conditions: RCMB 010010, 24 h
Enterococcus faecalis [6] = assay: Antibacterial activity against Enterococcus faecalis RCMB 010068 at 100 umol/ml after 24 hrs by well diffusion assay; format: functional
Staphylococcus aureus [7] = assay: Antibacterial activity against Staphylococcus aureus RCMB 010028 at 100 umol/ml after 24 hrs by well diffusion assay; format: functional
Escherichia coli [8] = assay: Antibacterial activity against Escherichia coli RCMB 010052 at 100 umol/ml after 24 hrs by well diffusion assay; format: functional
Escherichia coli [9] = assay: Antibacterial activity against Escherichia coli RCMB 010052 after 24 hrs by twofold serial dilution technique; format: functional; conditions: RCMB 010052, 24 h
Salmonella typhimurium [10] = assay: Antibacterial activity against Salmonella typhimurium RCMB 010072 after 24 hrs by twofold serial dilution technique; format: functional, Salmonella enterica subsp. enterica serovar Typhimurium; conditions: Salmonella enterica, RCMB 010072, 24 h

Compound | MIC (Enterococcus faecalis [1]) | MIC (Staphylococcus aureus [4]) | MIC (Streptococcus pneumoniae [5]) | MIC (Escherichia coli [9]) | MIC (Salmonella typhimurium [10]) | diameter of the inhibition zone (DIZ) (Salmonella typhimurium [2]) | diameter of the inhibition zone (DIZ) (Streptococcus pneumoniae [3]) | diameter of the inhibition zone (DIZ) (Enterococcus faecalis [6]) | diameter of the inhibition zone (DIZ) (Staphylococcus aureus [7]) | diameter of the inhibition zone (DIZ) (Escherichia coli [8])
Nc1ccc(S(=O)(=O)Nc2ncccn2)cc1 [SULFADIAZINE] | 100 mM (≈ 25000 µg/mL) | 6.25 mM (≈ 1560 µg/mL) | 100 mM (≈ 25000 µg/mL) | 100 mM (≈ 25000 µg/mL) | 50 mM (≈ 12500 µg/mL) | 15 mm | 14.2 mm | 13.7 mm | 18.3 mm | 14.2 mm
Nc1ccc(S(=O)(=O)Nc2nccs2)cc1 [SULFATHIAZOLE] | 50 mM (≈ 12800 µg/mL) | 50 mM (≈ 12800 µg/mL) | 25 mM (≈ 6380 µg/mL) | 100 mM (≈ 25500 µg/mL) | 12.5 mM (≈ 3190 µg/mL) | 17.2 mm | 15.8 mm | 14.9 mm | 15 mm | 13.8 mm
COc1ccc(Cc2nn(CCC(=O)Nc3ccc(S(=O)(=O)Nc4ncccn4)cc3)c(=O)c3ccccc23)cc1 | 25 mM (≈ 14300 µg/mL) | 3.12 mM (≈ 1780 µg/mL) | 50 mM (≈ 28500 µg/mL) | 50 mM (≈ 28500 µg/mL) | 25 mM (≈ 14300 µg/mL) | 17.4 mm | 15.7 mm | 17.2 mm | 19.8 mm | 16.2 mm
COc1ccc(Cc2nn(CC(=O)Nc3ccc(S(N)(=O)=O)cc3)c(=O)c3ccccc23)cc1 | 25 mM (≈ 12000 µg/mL) | 0.39 mM (≈ 187 µg/mL) | 6.25 mM (≈ 2990 µg/mL) | 3.12 mM (≈ 1490 µg/mL) | 1.56 mM (≈ 747 µg/mL) | 20 mm | 18.2 mm | 16.2 mm | 22 mm | 19.6 mm
NS(=O)(=O)c1ccc(NC(=O)Cn2nc(Cc3ccccc3)c3ccccc3c2=O)cc1 | 50 mM (≈ 22400 µg/mL) | 0.78 mM (≈ 350 µg/mL) | 25 mM (≈ 11200 µg/mL) | 6.25 mM (≈ 2800 µg/mL) | 3.12 mM (≈ 1400 µg/mL) | 18.24 mm | 16.2 mm | 15.3 mm | 21 mm | 17.6 mm

Second part, led by results:

MIC (Enterococcus faecalis [1]) | MIC (Staphylococcus aureus [4]) | MIC (Streptococcus pneumoniae [5]) | MIC (Escherichia coli [9]) | MIC (Salmonella typhimurium [10]) | Compound | diameter of the inhibition zone (DIZ) (Salmonella typhimurium [2]) | diameter of the inhibition zone (DIZ) (Streptococcus pneumoniae [3]) | diameter of the inhibition zone (DIZ) (Enterococcus faecalis [6]) | diameter of the inhibition zone (DIZ) (Staphylococcus aureus [7]) | diameter of the inhibition zone (DIZ) (Escherichia coli [8])
25 mM (≈ 12900 µg/mL) | 12.5 mM (≈ 6470 µg/mL) | 1.56 mM (≈ 807 µg/mL) | 25 mM (≈ 12900 µg/mL) | 0.78 mM (≈ 404 µg/mL) | O=C(Cn1nc(-c2ccccc2)c2ccccc2c1=O)Nc1ccc(S(=O)(=O)Nc2nccs2)cc1 | 21 mm | 20.3 mm | 17 mm | 18.3 mm | 16.3 mm
100 mM (≈ 17200 µg/mL) | 12.5 mM (≈ 2150 µg/mL) | 25 mM (≈ 4310 µg/mL) | 25 mM (≈ 4310 µg/mL) | 100 mM (≈ 17200 µg/mL) | Nc1ccc(S(N)(=O)=O)cc1 [SULFANILAMIDE] | 14.2 mm | 15.8 mm | 14.2 mm | 16.8 mm | 15.8 mm
50 mM (≈ 27800 µg/mL) | 6.25 mM (≈ 3480 µg/mL) | 25 mM (≈ 13900 µg/mL) | 25 mM (≈ 13900 µg/mL) | 3.12 mM (≈ 1740 µg/mL) | COc1ccc(Cc2nn(CC(=O)Nc3ccc(S(=O)(=O)Nc4ncccn4)cc3)c(=O)c3ccccc23)cc1 | 19.3 mm | 16.3 mm | 15.2 mm | 18.6 mm | 16.9 mm
25 mM (≈ 13800 µg/mL) | 3.12 mM (≈ 1720 µg/mL) | 1.56 mM (≈ 861 µg/mL) | 0.39 mM (≈ 215 µg/mL) | 0.78 mM (≈ 431 µg/mL) | O=C(Cn1nc(-c2ccc(Cl)cc2)c2ccccc2c1=O)Nc1ccc(S(=O)(=O)Nc2nccs2)cc1 | 21.4 mm | 20.2 mm | 17.2 mm | 19.9 mm | 22.2 mm
12.5 mM (≈ 6160 µg/mL) | 0.39 mM (≈ 192 µg/mL) | 6.25 mM (≈ 3080 µg/mL) | 3.12 mM (≈ 1540 µg/mL) | 1.56 mM (≈ 768 µg/mL) | COc1ccc(Cc2nn(CCC(=O)Nc3ccc(S(N)(=O)=O)cc3)c(=O)c3ccccc23)cc1 | 21 mm | 18.3 mm | 16.7 mm | 22.3 mm | 19.9 mm
25 mM (≈ 10900 µg/mL) | 1.56 mM (≈ 678 µg/mL) | 12.5 mM (≈ 5430 µg/mL) | 12.5 mM (≈ 5430 µg/mL) | 12.5 mM (≈ 5430 µg/mL) | NS(=O)(=O)c1ccc(NC(=O)Cn2nc(-c3ccccc3)c3ccccc3c2=O)cc1 | 16.9 mm | 16.8 mm | 15.9 mm | 19.4 mm | 16.8 mm
1.56 mM (≈ 800 µg/mL) | 0.39 mM (≈ 200 µg/mL) | 0.39 mM (≈ 200 µg/mL) | 25 mM (≈ 12800 µg/mL) | 6.25 mM (≈ 3200 µg/mL) | O=C(Cn1nc(-c2ccccc2)c2ccccc2c1=O)Nc1ccc(S(=O)(=O)Nc2ncccn2)cc1 | 18.2 mm | 22.3 mm | 20.3 mm | 22.3 mm | 16.1 mm
